How the values were obtained:
Glutamate NMDA receptor [1] = assay: Displacement of [3H]-SPD from N-methyl-D-aspartate glutamate receptor; assay type: protein-complex assay, Rattus norvegicus
Glutamate NMDA receptor [2] = assay: Displacement of [3H]MK-801 from N-methyl-D-aspartate glutamate receptor; assay type: protein-complex assay, Rattus norvegicus

IC50 (Glutamate NMDA receptor [1]) | IC50 (Glutamate NMDA receptor [2]) | SMILES
184 µM | 232 µM | Nc1cccc2c1C(=O)c1c(N)ccc(N)c1C2=O
116 µM | 119 µM | Nc1ccc2c(c1)C(=O)c1ccccc1C2=O
412 µM | 567 µM | Nc1ccc(N)c2c1C(=O)c1ccccc1C2=O
> 1000 µM | > 1000 µM | Nc1ccc(N)c2c1C(=O)c1c(N)ccc(N)c1C2=O
179 µM | 158 µM | Nc1ccc(O)c2c1C(=O)c1ccccc1C2=O
218 µM | 140 µM | Nc1cccc2c1C(=O)c1ccccc1C2=O
> 1000 µM | > 1000 µM | Nc1ccc(O)c2c1C(=O)c1c(N)ccc(O)c1C2=O
602 µM | 414 µM | Nc1ccc2c(c1N)C(=O)c1ccccc1C2=O
338 µM | 323 µM | Nc1cccc2c1C(=O)c1cccc(N)c1C2=O
> 1000 µM | > 1000 µM | Nc1ccc2c(c1)C(=O)c1ccc(N)cc1C2=O

SMILES | IC50 (Glutamate NMDA receptor [1]) | IC50 (Glutamate NMDA receptor [2])
O=C1c2ccccc2C(=O)c2ccccc21 [ANTHRAQUINONE] | > 1000 µM | > 1000 µM
